In US12599136B2, “Substituted isophthalic acid diamides and their use as herbicides” (Bayer Aktiengesellschaft, priority 2020, dated 2026):

Experiments:
Format in all cases: in vivo
Abutilon theophrasti [1] = test: Pre-emergence herbicidal action against ABUTH; settings: visual score after 3 weeks vs untreated controls
How it was run: (§1)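 Greenhouse pots of sandy loam held seeds covered with soil, onto which the compound was applied before emergence. An aqueous suspension or emulsion of WP or EC was used at 600 to 800 l/ha with 0.2% wetting agent. Percent damage was judged visually at 3 weeks.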

Alopecurus myosuroides [2] = test: Pre-emergence herbicidal action against ALOMY; settings: visual score after 3 weeks vs untreated controls
How it was run: as §1

Amaranthus retroflexus [3] = test: Pre-emergence herbicidal action against AMARE; settings: visual score after 3 weeks vs untreated controls
How it was run: as §1

Avena fatua [4] = test: Pre-emergence herbicidal action against AVEFA; settings: visual score after 3 weeks vs untreated controls
How it was run: as §1

Cyperus esculentus [5] = test: Pre-emergence herbicidal action against CYPES; settings: visual score after 3 weeks vs untreated controls
How it was run: as §1

Echinochloa crus-galli [6] = test: Pre-emergence herbicidal action against ECHCG; settings: visual score after 3 weeks vs untreated controls
How it was run: as §1

Matricaria inodora [7] = test: Pre-emergence herbicidal action against MATIN; settings: visual score after 3 weeks vs untreated controls
How it was run: as §1

Pharbitis purpurea [8] = test: Pre-emergence herbicidal action against PHBPU; settings: visual score after 3 weeks vs untreated controls
How it was run: as §1

Hordeum murinum [9] = test: Pre-emergence herbicidal action against HORMU; settings: visual score after 3 weeks vs untreated controls
How it was run: as §1

Lolium rigidum [10] = test: Pre-emergence herbicidal action against LOLRI
How it was run: as §1

Polygonum convolvulus [11] = test: Pre-emergence herbicidal action against POLCO
How it was run: as §1

Setaria viridis [12] = test: Pre-emergence herbicidal action against SETVI
How it was run: as §1

Stellaria media [13] = test: Pre-emergence herbicidal action against STEME
How it was run: as §1

Veronica persica [14] = test: Pre-emergence herbicidal action against VERPE
How it was run: as §1

Viola tricolor [15] = test: Pre-emergence herbicidal action against VIOTR
How it was run: as §1

Abutilon theophrasti [16] = test: Post-emergence herbicidal action against ABUTH
How it was run: (§2)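 A WP or EC formulation diluted in water with 0.2% wetting agent was sprayed at 600 to 800 l/ha onto one-leaf-stage plants grown in sandy loam. About 3 weeks later, action was rated visually in percent, 100% being dead plants.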

Alopecurus myosuroides [17] = test: Post-emergence herbicidal action against ALOMY
How it was run: as §2

Amaranthus retroflexus [18] = test: Post-emergence herbicidal action against AMARE; settings: visual assessment about 3 weeks after treatment
How it was run: as §2

Avena fatua [19] = test: Post-emergence herbicidal action against AVEFA; settings: 80 g/ha, visual assessment about 3 weeks after treatment
How it was run: as §2

Cyperus esculentus [20] = test: Post-emergence herbicidal action against CYPES; settings: 80 g/ha, visual assessment about 3 weeks after treatment
How it was run: as §2

Echinochloa crus-galli [21] = test: Post-emergence herbicidal action against ECHCG; settings: visual assessment about 3 weeks after treatment
How it was run: as §2

Matricaria inodora [22] = test: Post-emergence herbicidal action against MATIN; settings: visual assessment about 3 weeks after treatment
How it was run: as §2

Pharbitis purpurea [23] = test: Post-emergence herbicidal action against PHBPU; settings: visual assessment about 3 weeks after treatment
How it was run: as §2

Hordeum murinum [24] = test: Post-emergence herbicidal action against HORMU
How it was run: as §2

Lolium rigidum [25] = test: Post-emergence herbicidal action against LOLRI; settings: 80 g/ha
How it was run: as §2

Polygonum convolvulus [26] = test: Post-emergence herbicidal action against POLCO; settings: 80 g/ha, visual assessment about 3 weeks after treatment
How it was run: as §2

Setaria viridis [27] = test: Post-emergence herbicidal action against SETVI; settings: visual assessment about 3 weeks after treatment
How it was run: as §2

Stellaria media [28] = test: Post-emergence herbicidal action against STEME; settings: visual assessment about 3 weeks after treatment
How it was run: as §2

Veronica persica [29] = test: Post-emergence herbicidal action against VERPE; settings: 80 g/ha, visual assessment about 3 weeks after treatment
How it was run: as §2

Viola tricolor [30] = test: Post-emergence herbicidal action against VIOTR
How it was run: as §2

Cn1nnnc1NC(=O)c1ccc(C(F)(F)F)c(C(=O)n2cccn2)c1Cl [Example 1-153]
Pre-emergence action against ABUTH (Abutilon theophrasti [1]; 20 g/ha): 100%
Pre-emergence action against ABUTH (Abutilon theophrasti [1]; 80 g/ha): 100%
Pre-emergence action against ABUTH (Abutilon theophrasti [1]; Dosage column 320 g/ha (heading prints 3200 g/ha)): 100%
Pre-emergence action against ALOMY (Alopecurus myosuroides [2]; 80 g/ha): 80%
Pre-emergence action against ALOMY (Alopecurus myosuroides [2]; 320 g/ha): 100%
Pre-emergence action against AMARE (Amaranthus retroflexus [3]; 20 g/ha): 100%
Pre-emergence action against AMARE (Amaranthus retroflexus [3]; 80 g/ha): 100%
Pre-emergence action against AMARE (Amaranthus retroflexus [3]; 320 g/ha): 100%
Pre-emergence action against AVEFA (Avena fatua [4]; 80 g/ha): 100%
Pre-emergence action against AVEFA (Avena fatua [4]; 320 g/ha): 100%
Pre-emergence action against CYPES (Cyperus esculentus [5]; 20 g/ha): 100%
Pre-emergence action against CYPES (Cyperus esculentus [5]; 80 g/ha): 100%
Pre-emergence action against CYPES (Cyperus esculentus [5]; 320 g/ha): 100%
Pre-emergence action against ECHCG (Echinochloa crus-galli [6]; 20 g/ha): 100%
Pre-emergence action against ECHCG (Echinochloa crus-galli [6]; 80 g/ha): 100%
Pre-emergence action against ECHCG (Echinochloa crus-galli [6]; 320 g/ha): 100%
Pre-emergence action against MATIN (Matricaria inodora [7]; 20 g/ha): 90%
Pre-emergence action against MATIN (Matricaria inodora [7]; 80 g/ha): 100%
Pre-emergence action against MATIN (Matricaria inodora [7]; 320 g/ha): 100%
Pre-emergence action against PHBPU (Pharbitis purpurea [8]; 80 g/ha): 90%
Pre-emergence action against PHBPU (Pharbitis purpurea [8]; 320 g/ha): 90%
Pre-emergence action against HORMU (Hordeum murinum [9]; 80 g/ha): 80%
Pre-emergence action against HORMU (Hordeum murinum [9]; 320 g/ha): 100%
Pre-emergence action against LOLRI (Lolium rigidum [10]; 80 g/ha): 80%
Pre-emergence action against LOLRI (Lolium rigidum [10]; 320 g/ha): 90%
Pre-emergence action against POLCO (Polygonum convolvulus [11]; 80 g/ha): 90%
Pre-emergence action against POLCO (Polygonum convolvulus [11]; 320 g/ha): 100%
Pre-emergence action against SETVI (Setaria viridis [12]; 20 g/ha): 100%
Pre-emergence action against SETVI (Setaria viridis [12]; 80 g/ha): 100%
Pre-emergence action against SETVI (Setaria viridis [12]; 320 g/ha): 100%
Pre-emergence action against STEME (Stellaria media [13]; 20 g/ha): 90%
Pre-emergence action against STEME (Stellaria media [13]; 80 g/ha): 90%
Pre-emergence action against STEME (Stellaria media [13]; 320 g/ha): 100%
Pre-emergence action against VERPE (Veronica persica [14]; 80 g/ha): 90%
Pre-emergence action against VERPE (Veronica persica [14]; 320 g/ha): 100%
Pre-emergence action against VIOTR (Viola tricolor [15]; 80 g/ha): 100%
Pre-emergence action against VIOTR (Viola tricolor [15]; 320 g/ha): 100%
Post-emergence action against ABUTH (Abutilon theophrasti [16]; 5 g/ha): 90%
Post-emergence action against ABUTH (Abutilon theophrasti [16]; 20 g/ha): 90%
Post-emergence action against ABUTH (Abutilon theophrasti [16]; 80 g/ha): 90%
Post-emergence action against ALOMY (Alopecurus myosuroides [17]; 5 g/ha): 80%
Post-emergence action against ALOMY (Alopecurus myosuroides [17]; 20 g/ha): 90%
Post-emergence action against ALOMY (Alopecurus myosuroides [17]; 80 g/ha): 90%
Post-emergence action against AMARE in % (Amaranthus retroflexus [18]; 5 g/ha): 100%
Post-emergence action against AMARE in % (Amaranthus retroflexus [18]; 20 g/ha): 100%
Post-emergence action against AMARE in % (Amaranthus retroflexus [18]; 80 g/ha): 100%
Post-emergence action against AVEFA in % (Avena fatua [19]): 100%
Post-emergence action against CYPES in % (Cyperus esculentus [20]): 90%
Post-emergence action against ECHCG in % (Echinochloa crus-galli [21]; 5 g/ha): 90%
Post-emergence action against ECHCG in % (Echinochloa crus-galli [21]; 20 g/ha): 100%
Post-emergence action against ECHCG in % (Echinochloa crus-galli [21]; 80 g/ha): 100%
Post-emergence action against MATIN in % (Matricaria inodora [22]; 5 g/ha): 90%
Post-emergence action against MATIN in % (Matricaria inodora [22]; 20 g/ha): 90%
Post-emergence action against MATIN in % (Matricaria inodora [22]; 80 g/ha): 100%
Post-emergence action against PHBPU in % (Pharbitis purpurea [23]; 5 g/ha): 80%
Post-emergence action against PHBPU in % (Pharbitis purpurea [23]; 20 g/ha): 90%
Post-emergence action against PHBPU in % (Pharbitis purpurea [23]; 80 g/ha): 90%
Post-emergence action against HORMU in % (Hordeum murinum [24]; 20 g/ha): 80%
Post-emergence action against HORMU in % (Hordeum murinum [24]; 80 g/ha): 90%
Post-emergence action against LOLRI in % (Lolium rigidum [25]): 90%
Post-emergence action against POLCO in % (Polygonum convolvulus [26]): 90%
Post-emergence action against SETVI in % (Setaria viridis [27]; 20 g/ha): 100%
Post-emergence action against SETVI in % (Setaria viridis [27]; 80 g/ha): 100%
Post-emergence action against STEME in % (Stellaria media [28]; 5 g/ha): 100%
Post-emergence action against STEME in % (Stellaria media [28]; 20 g/ha): 100%
Post-emergence action against STEME in % (Stellaria media [28]; 80 g/ha): 100%
Post-emergence action against VERPE in % (Veronica persica [29]): 80%
Post-emergence action against VIOTR in % (Viola tricolor [30]; 5 g/ha): 80%
Post-emergence action against VIOTR in % (Viola tricolor [30]; 20 g/ha): 90%
Post-emergence action against VIOTR in % (Viola tricolor [30]; 80 g/ha): 90%
